Data from US10258600B2, “Aryl hydrocarbon receptor (AhR) modifiers as novel cancer therapeutics” (Trustees of Boston University, priority 2010, dated 2019).
Entries after “also recorded” stand apart in the source; their conditions may differ.

Columns and labels:
PPARγ = target: T1, PPARγ (Homo sapiens, UniProt P37231); assay: PPARγ-driven luciferase reporter in Cos 7 cells; format: cell-based; conditions: rosiglitazone 1 μM, 18-24 hrs
T1 construct: expressed in transfected cells; host or cells: Cos 7 cells
T1 sequence (P37231 1-505): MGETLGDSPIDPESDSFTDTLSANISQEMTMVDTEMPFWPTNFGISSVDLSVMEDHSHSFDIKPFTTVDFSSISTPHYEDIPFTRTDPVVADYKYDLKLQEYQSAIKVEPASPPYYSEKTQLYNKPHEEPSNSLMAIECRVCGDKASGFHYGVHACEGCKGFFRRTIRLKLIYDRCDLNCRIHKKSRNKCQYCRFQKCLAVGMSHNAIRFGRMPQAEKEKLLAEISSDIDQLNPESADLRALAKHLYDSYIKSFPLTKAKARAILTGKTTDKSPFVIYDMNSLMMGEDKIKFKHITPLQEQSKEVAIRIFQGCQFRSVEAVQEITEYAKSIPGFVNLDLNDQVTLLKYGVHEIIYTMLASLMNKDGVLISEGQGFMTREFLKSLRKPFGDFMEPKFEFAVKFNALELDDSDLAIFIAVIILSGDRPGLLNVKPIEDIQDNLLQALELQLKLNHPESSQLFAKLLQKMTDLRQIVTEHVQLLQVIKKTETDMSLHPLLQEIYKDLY
T1 sequence (P19793 1-462 partner): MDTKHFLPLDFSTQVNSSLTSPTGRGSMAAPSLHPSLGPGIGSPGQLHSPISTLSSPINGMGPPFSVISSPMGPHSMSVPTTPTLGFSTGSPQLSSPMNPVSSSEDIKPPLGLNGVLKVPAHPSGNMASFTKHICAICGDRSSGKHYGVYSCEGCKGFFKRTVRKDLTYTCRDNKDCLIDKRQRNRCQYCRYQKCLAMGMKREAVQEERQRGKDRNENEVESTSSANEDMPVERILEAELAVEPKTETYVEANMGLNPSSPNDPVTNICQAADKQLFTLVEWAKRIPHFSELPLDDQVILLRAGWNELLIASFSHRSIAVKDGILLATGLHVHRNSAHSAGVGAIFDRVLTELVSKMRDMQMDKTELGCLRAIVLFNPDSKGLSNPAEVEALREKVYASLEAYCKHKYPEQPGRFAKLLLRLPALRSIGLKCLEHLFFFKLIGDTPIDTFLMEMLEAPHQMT
Experimental: Cos 7 cells were transfected with the peroxisome proliferator activator receptor-γ (PPARγ), its dimerization partner, RXR, a PPARγ-driven luciferase reporter construct, and a control CMV-driven GFP reporter for 24 hours. Cells then were treated with a vehicle, 10 μM AhR inhibitor CH223191, 50 μM AhR inhibitor CMLD-2166, or 10 μM AhR inhibitor CB7993113. (These represent high AhR inhibitor doses). Rosiglitazone (1 μM), a strong PPARγ agonist, was added 1 hour later and cells assayed 18-24 hrs thereafter for PPARγ-driven reporter activity (luciferase intensity), normalized to the GFP signal. Data were pooled from 4 experiments. Unlike their ability to block AhR-driven reporter activity, the AhR inhibitors had no effect on the PPARγ-driven reporter activity.

AhR [1] = target: T2, AhR (Mus musculus, UniProt P30561); assay: AhR nuclear translocation, western immunoblot of Hepa-1 nuclear and cytoplasmic extracts; format: cell-based; set-up: endogenous in cells; conditions: Hepa-1 cells
Experimental: To determine whether the inhibitory action of CB7993113 involves binding to the AhR and blocking its translocation to the nucleus, Hepa-1 cells were treated with 1-10 uM CB7993113. One hour later they were challenged with a strong AhR agonist and prototypic PAH, DMBA (1 uM). After a 30 minute incubation period, cells were harvested and extracts from cell nuclei and cytoplasm were obtained. These extracts then were probed for levels of AhR and, as a loading control, β-actin, by western immunoblotting.
Hepa-1 cells were treated with vehicle or 1-10 μM CH223191. One hour later cells were treated with 0.1 μM DMBA (where indicated) and incubated for 30 minutes. Cells were harvested and proteins from the cytoplasm and nuclei were extracted. Extracted proteins were subjected to AhR- or, as loading control, β-actin-specific western immunoblots. Data are representative of 3 independent experiments.

[2] = system: bone marrow hematopoietic cells; assay: DMBA-induced bone marrow toxicity in mice; format: in vivo, C57BL/6 mice; conditions: 48 hours; for DMBA-induced decrease in total number of bone marrow cells: 50 mg/kg i.p., 50 mg/kg DMBA; for DMBA-induced decrease in pro B cells, pre-B cells and neutrophils: co-administration with 50 mg/kg DMBA
Experimental: To test the ability of one of the lead compounds described herein, CB7993113, to be absorbed and to function effectively in vivo, C57BL/6 mice were treated with an acutely toxic dose (50 mg/kg) of DMBA, a potent AhR agonist, in the presence or absence of CB7993113 or another AhR inhibitor, CH223191. […] This decrease in the total number of bone marrow cells was prevented by the i.p. injection of 50 mg/kg CH223191 or CB7993113.
Mice then were injected with 50 mg/kg DMBA. Mice were sacrificed 48 hours later. Bone marrow hematopoietic cells were expunged from the bone and viable cells counted. Data are presented as the average number of viable white blood cells+SE. **p<0.01, ***P<0.001, student's t-test. […] C57BL/6 mice (6/group) were treated as in FIG. 8A. The percentage and number of viable bone marrow pro B cells, pre B cells, and neutrophils were determined 48 hours later by flow cytometry. Data are presented as the average number of viable cells of each subtype+SE. (*p<0.05, **P<0.01, student's t-test).

AhR [3] = target: T3, AhR (Homo sapiens, UniProt P35869); assay: Radiolabeled TCDD displacement from in vitro translated AhR, sucrose gradient; format: binding; set-up: made in house; conditions: fractions 13-16 of sucrose gradient
T3 sequence (P35869 11-848): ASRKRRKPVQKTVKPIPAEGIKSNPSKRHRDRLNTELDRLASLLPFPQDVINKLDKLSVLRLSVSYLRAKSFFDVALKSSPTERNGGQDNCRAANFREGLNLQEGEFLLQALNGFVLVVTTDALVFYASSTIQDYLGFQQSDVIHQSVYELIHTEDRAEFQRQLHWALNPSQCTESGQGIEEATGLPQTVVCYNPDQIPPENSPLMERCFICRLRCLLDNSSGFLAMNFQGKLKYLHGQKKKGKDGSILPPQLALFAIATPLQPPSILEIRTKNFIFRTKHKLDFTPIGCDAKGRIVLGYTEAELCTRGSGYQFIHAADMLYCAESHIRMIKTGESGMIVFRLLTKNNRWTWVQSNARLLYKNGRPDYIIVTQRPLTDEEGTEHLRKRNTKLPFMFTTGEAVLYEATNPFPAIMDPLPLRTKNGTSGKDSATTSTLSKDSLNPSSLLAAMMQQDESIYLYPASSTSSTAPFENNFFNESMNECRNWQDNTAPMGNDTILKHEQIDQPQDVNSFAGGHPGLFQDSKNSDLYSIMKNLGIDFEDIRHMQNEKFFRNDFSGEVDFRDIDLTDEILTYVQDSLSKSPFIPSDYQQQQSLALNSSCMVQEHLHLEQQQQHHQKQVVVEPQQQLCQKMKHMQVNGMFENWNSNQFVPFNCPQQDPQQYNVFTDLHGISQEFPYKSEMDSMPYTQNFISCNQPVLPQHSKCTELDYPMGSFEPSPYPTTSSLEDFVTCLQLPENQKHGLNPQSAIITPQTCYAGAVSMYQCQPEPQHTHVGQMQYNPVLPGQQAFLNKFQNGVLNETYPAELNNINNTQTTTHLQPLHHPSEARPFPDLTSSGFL
Excerpt: The compounds CMLD-2166 and CB7993113 were mixed with in vitro translated human AhR and radiolabeled TCDD (dioxin), a high affinity AhR ligand. Complexes then were separated on a sucrose gradient and fractions assayed for radioactivity. A decrease in the signal (displacement of radiolabeled TCDD) can be seen in fractions 13-16 indicating binding of the test compound to the AhR and displacement of TCDD.

BP1 cells [4] = assay: Toxicity of CB7993113 at highest doses tested; format: cell-based, human; conditions: 10 uM
Experimental: (§1) BP1 cells were cultured in the presence of vehicle (left) or 5 uM CB7993113 in Matrigel for 5 days. CB7993113 is not toxic at the highest doses tested, 10 uM.

BP1 cells [5] = assay: Tumor invasion in Matrigel, BP1; format: cell-based, human; conditions: 5 uM, 5 days
Experimental: as §1
BP1 cells were cultured in Matrigel in the presence of vehicle, 5 μM DIM (16A), vehicle or 5 uM CB7950998 (16B) for 5 days.

AhR [6] = target: T3, AhR; assay: AhR-responsive pGudLuc reporter, constitutive AhR activity; format: cell-based; set-up: malignant BP1 and immortalized MCF-10F cells that were transiently transfected with AhR-responsive pGudLuc; endogenous in cells; host or cells: BP1 and MCF-10F cells; conditions: BP1 and MCF-10F cells, 24 hrs
BP1 and MCF-10F cells = assay: 3H-thymidine incorporation cell growth; format: cell-based, human; conditions: 18 hrs
AhR [7] = target: T2, AhR; assay: High throughput AhR-driven GFP reporter bioassay in H1G1 cells; format: cell-based; set-up: H1G1 cells expressing an AhR-driven GFP reporter construct; endogenous in cells; host or cells: H1G1 cells; conditions: titered in presence of 1 μM BNF; read-out: AhR Antagonists IC50
Experimental: Using a high throughput reporter-based AhR bioassay and cell viability assay, over 4000 CMLD compounds, FDA drugs, and NCI-generated extracts were screened, and 8 non-toxic AhR inhibitors (2 from the CMLD) and 19 AhR agonists (14 from the CMLD) were identified (as shown in, e.g., FIGS. 4A-4B). IC50 values for inhibitors and EC50 values for agonists were determined (Table 1). One of these discovered inhibitors (CMLD-2166), its enantiomer (CMLD-2186), and a previously described lipid soluble AhR inhibitor (CH223191) blocked tumor growth and invasion (FIGS. 5A-5B and 7A-7B).
FIGS. 4A-4B show high-throughput screening (HTS) for AhR agonists and antagonists. […] A dark circle identifies an AhR inhibitor while the light circle indicates an agonist. […] Over 4,000 compounds were screened in this semi-automated assay.

Hs578T cells [8] = assay: Tumor invasion in Matrigel, Hs578T; format: cell-based, human; conditions: 10^−5M, 7 days
Experimental: (§2) Hs578T cells were cultured in Boyden Chambers (FIG. 7A) or in Matrigel (FIG. 7B) in the presence of DMSO, 10^−5M CMLD-2166, CMLD-2186 (a 2166 enantiomer) or CH223191 and assayed for invasion 2 (Boyden Chambers) or 7 (Matrigel) days later.

Hs578T cells [9] = assay: Tumor invasion in Boyden Chambers; format: cell-based, human; conditions: 10^−5M, 2 days
Experimental: as §2

T2 sequence (P30561 10-805 limits assumed): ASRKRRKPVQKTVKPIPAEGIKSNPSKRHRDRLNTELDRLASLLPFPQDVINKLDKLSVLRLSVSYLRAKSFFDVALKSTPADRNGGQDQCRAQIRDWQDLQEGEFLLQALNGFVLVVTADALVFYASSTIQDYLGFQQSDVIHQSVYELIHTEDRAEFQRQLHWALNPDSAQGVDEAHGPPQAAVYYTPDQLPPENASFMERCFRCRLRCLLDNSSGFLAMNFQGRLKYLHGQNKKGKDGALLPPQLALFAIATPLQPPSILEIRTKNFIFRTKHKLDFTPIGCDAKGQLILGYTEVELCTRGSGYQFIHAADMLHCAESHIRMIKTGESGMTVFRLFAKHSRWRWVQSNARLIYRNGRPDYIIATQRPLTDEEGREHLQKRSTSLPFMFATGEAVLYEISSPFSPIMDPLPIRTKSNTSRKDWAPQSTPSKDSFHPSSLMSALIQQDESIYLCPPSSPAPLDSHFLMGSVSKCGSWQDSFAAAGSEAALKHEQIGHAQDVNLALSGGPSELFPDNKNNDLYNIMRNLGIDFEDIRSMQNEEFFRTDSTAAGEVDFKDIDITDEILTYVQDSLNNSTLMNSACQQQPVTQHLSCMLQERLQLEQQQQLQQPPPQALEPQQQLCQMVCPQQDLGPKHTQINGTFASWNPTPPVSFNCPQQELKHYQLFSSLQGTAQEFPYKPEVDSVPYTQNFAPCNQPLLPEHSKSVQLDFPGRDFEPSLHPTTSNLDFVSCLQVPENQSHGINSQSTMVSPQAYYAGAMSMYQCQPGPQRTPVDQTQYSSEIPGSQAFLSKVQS
T2 sequence (P11499 whole entry partner): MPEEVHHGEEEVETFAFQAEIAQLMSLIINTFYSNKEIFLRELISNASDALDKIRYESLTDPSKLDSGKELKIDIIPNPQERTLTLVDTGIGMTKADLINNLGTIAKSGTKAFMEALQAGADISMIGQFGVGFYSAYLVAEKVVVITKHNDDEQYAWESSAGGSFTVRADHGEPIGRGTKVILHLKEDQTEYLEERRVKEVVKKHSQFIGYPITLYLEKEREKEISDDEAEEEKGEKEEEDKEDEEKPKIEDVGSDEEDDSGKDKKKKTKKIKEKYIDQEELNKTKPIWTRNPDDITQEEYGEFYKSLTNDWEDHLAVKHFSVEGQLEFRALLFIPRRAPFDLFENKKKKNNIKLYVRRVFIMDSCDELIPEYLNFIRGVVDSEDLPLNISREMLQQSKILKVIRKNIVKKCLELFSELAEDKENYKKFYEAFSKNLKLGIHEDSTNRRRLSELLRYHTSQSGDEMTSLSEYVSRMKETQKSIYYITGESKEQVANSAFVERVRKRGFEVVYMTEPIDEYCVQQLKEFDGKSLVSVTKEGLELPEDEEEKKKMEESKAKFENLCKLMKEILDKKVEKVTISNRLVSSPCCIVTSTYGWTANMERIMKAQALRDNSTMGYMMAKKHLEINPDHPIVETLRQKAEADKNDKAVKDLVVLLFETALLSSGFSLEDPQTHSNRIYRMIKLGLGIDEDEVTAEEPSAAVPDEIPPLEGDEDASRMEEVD
T2 sequence (O08915 whole entry partner): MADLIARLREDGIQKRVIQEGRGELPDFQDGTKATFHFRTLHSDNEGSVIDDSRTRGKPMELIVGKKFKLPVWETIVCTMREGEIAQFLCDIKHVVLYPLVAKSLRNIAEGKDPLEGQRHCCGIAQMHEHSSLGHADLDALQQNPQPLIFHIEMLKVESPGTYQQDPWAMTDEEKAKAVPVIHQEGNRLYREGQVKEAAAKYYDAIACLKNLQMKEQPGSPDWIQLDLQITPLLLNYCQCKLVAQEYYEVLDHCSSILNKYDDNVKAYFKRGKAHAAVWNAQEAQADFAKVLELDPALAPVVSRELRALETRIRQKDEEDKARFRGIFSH

SMILES	PPARγ-driven reporter activity (PPARγ; 10 μM)	DMBA-induced decrease in total number of bone marrow cells [2]	DMBA-induced decrease in pro B cells, pre-B cells and neutrophils [2]	binding to AhR (displacement of radiolabeled TCDD) (AhR [3])	BP1 tumor invasion in Matrigel (BP1 cells [5])	constitutive AhR activity (pGudLuc activity) (AhR [6])	cell growth (3H-thymidine incorporation) (BP1 and MCF-10F cells)	IC50 (AhR [7])	tumor invasion, Matrigel (Hs578T cells [8])	tumor invasion, Boyden Chambers (Hs578T cells [9])	further results
NC(=O)COc1c(-c2ccc(Br)o2)oc2ccccc2c1=O [CB7993113]	no effect	prevented	completely blocked	bind human AhR	blocks						DMBA-induced AhR translocation to the nucleus (AhR [1]; 1-10 uM, 1 h before DMBA, 30 min): completely blocked; translocation of the AhR to the nucleus, inhibitor alone (agonist activity) (AhR [1]; no DMBA): no effect; toxicity (BP1 cells [4]): not toxic
CCOC(=O)Oc1c(-c2ccc(Cl)cc2)oc2ccccc2c1=O [CB7950998]					reduce						
c1ccc2c(Cc3c[nH]c4ccccc34)c[nH]c2c1 [DIM, 3,3′-diindolylmethane, reference compound]					reduce						
Cc1ccccc1N=Nc1ccc(NC(=O)c2ccnn2C)c(C)c1 [CH223191, reference compound]	no effect	prevented	completely blocked			inhibit	blocked; also recorded: inhibit	330 nM	inhibit tumor invasion	inhibit tumor invasion	
COc1ccc2c(c1)C(=O)[C@H](OC(=O)NS(=O)(=O)c1ccc(C)cc1)[C@@H](c1ccc(OC)c(Br)c1)O2 [CMLD-2166]				bind human AhR		inhibit	blocked	200 nM	inhibit tumor invasion	inhibit tumor invasion	PPARγ-driven reporter activity (PPARγ; 50 μM): no effect; cell growth (3H-thymidine incorporation) (BP1 and MCF-10F cells; listed as CMLD 2166): inhibit
